Measurements reported in US10681909B2, “Herbicidal triazoles” (FMC Corporation, priority 2014, dated 2020).

Experiments:
galium = assay: Test C preemergence; assay type: in vivo, Galium aparine; details: for Plant response rating (scale of 0 to 100 where 0 is no effect and 100 is complete control): Galium, preemergence; for Galium plant response rating (0 to 100): Preemergence, visual rating after 13 to 15 d
From the text: (§1) Seeds of plant species selected from blackgrass (Alopecurus myosuroides), ryegrass, Italian (Italian ryegrass, Lolium multiflorum), wheat (winter wheat, Triticum aestivum), galium (catchweed bedstraw, Galium aparine), corn (Zea mays), crabgrass, large (large crabgrass, Digitaria sanguinalis), foxtail, giant, (giant foxtail, Setaria faberii), johnsongrass (Sorghum halepense), lambsquarters (Chenopodium album), morningglory (Ipomoea coccinea), nutsedge, yellow (yellow nutsedge, Cyperus esculentus), pigweed (Amaranthus retroflexus), ragweed (common ragweed, Ambrosia elatior), soybean (Glycine max), barnyardgrass (Echinochloa crus-galli), oilseed rape (Brassica napus), waterhemp (common waterhemp, Amaranthus rudis), and velvetleaf (Abutilon theophrasti) were planted into a blend of loam soil and sand and treated preemergence with test chemicals formulated in a non-phytotoxic solvent mixture which included a surfactant. At the same time, plants selected from these crop and weed species and also chickweed (common chickweed, Stellaria media), oat, wild (wild oat, Avena fatua), and kochia (Kochia scoparia), were planted in pots containing Sunshine Redi-Earth® planting medium comprising spaghnum peat moss, vermiculite, starter nutrients and dolomitic limestone and treated with postemergence applications of test chemicals formulated in the same manner. Plants ranged in height from 2 to 18 cm (1- to 4-leaf stage) for postemergence treatments. […] A dash (-) response means no test result.

corn = assay: Test C preemergence; assay type: in vivo, Zea mays; details: for Plant response rating (scale of 0 to 100 where 0 is no effect and 100 is complete control): Corn, preemergence; for Corn plant response rating (0 to 100): Preemergence, visual rating after 13 to 15 d
From the text: as §1

foxtail, giant = assay: Test C preemergence; assay type: in vivo, Setaria faberii; details: for Plant response rating (scale of 0 to 100 where 0 is no effect and 100 is complete control): Foxtail, Giant, preemergence; for Foxtail, Giant plant response rating (0 to 100): Preemergence, visual rating after 13 to 15 d
From the text: as §1

lambsquarters = assay: Test C preemergence; assay type: in vivo, Chenopodium album; details: for Plant response rating (scale of 0 to 100 where 0 is no effect and 100 is complete control): Lambsquarters, preemergence; for Lambsquarters plant response rating (0 to 100): Preemergence, visual rating after 13 to 15 d
From the text: as §1

ragweed = assay: Test C preemergence; assay type: in vivo, Ambrosia elatior; details: for Ragweed plant response rating (0 to 100): Preemergence, visual rating after 13 to 15 d; for Plant response rating (scale of 0 to 100 where 0 is no effect and 100 is complete control): Ragweed, preemergence
From the text: as §1

barnyardgrass = assay: Test C preemergence; assay type: in vivo, Echinochloa crus-galli; details: for Plant response rating (scale of 0 to 100 where 0 is no effect and 100 is complete control): Barnyardgrass, preemergence; for Barnyardgrass plant response rating (0 to 100): Preemergence, visual rating after 13 to 15 d
From the text: as §1

velvetleaf = assay: Test C preemergence; assay type: in vivo, Abutilon theophrasti; details: for Velvetleaf plant response rating (0 to 100): Preemergence, visual rating after 13 to 15 d
From the text: as §1

bromegrass, down = assay: Test D preemergence; assay type: in vivo, Bromus tectorum; details: scale 0 to 100
From the text: (§2) Seeds of plant species selected from bluegrass (annual bluegrass, Poa annua), blackgrass (Alopecurus myosuroides), canarygrass (Phalaris minor), chickweed (common chickweed, Stellaria media), galium (catchweed bedstraw, Galium aparine), bromegrass, down (downy bromegrass, Bromus tectorum), Russian thistle (Salsola kali), field poppy (Papaver rhoeas), field violet (Viola arvensis), foxtail, green (green foxtail, Setaria viridis), deadnettle (henbit deadnettle, Lamium amplexicaule), ryegrass, Ital. (Italian ryegrass, Lolium multiflorum), kochia (Kochia scoparia), lambsquarters (Chenopodium album), oilseed rape (Brassica napus), pigweed (Amaranthus retroflexus), chamomile (scentless chamomile, Matricaria inodora), speedwell (bird's-eye speedwell, Veronica persica), barley, spring (spring barley, Hordeum vulgare), wheat, spring (spring wheat, Triticum aestivum), buckwheat, wild (wild buckwheat, Polygonum convolvulus), wild mustard (Sinapis arvensis), oat, wild (wild oat, Avena fatua), radish, wild (wild radish, Raphanus raphanistrum), […]), barley, winter (winter barley, Hordeum vulgare), and wheat, winter (winter wheat, Triticum aestivum) were planted into a silt loam soil and treated preemergence with test chemicals formulated in a non-phytotoxic solvent mixture which included a surfactant. At the same time, these species were planted in pots containing Sunshine Redi-Earth® planting medium comprising spaghnum peat moss, vermiculite, starter nutrients and dolomitic limestone and treated with postemergence applications of the test chemicals formulated in the same manner. Plants ranged in height from 2 to 18 cm (1- to 4-leaf stage). Treated plants and controls were maintained in a controlled growth environment for 14 to 21 d after which time all species were compared to controls and visually evaluated. […] A dash (-) response means no test result.

barley, spring = assay: Test D preemergence; assay type: in vivo, Hordeum vulgare; details: scale 0 to 100
From the text: as §2

barley, winter = assay: Test D preemergence; assay type: in vivo, Hordeum vulgare; details: scale 0 to 100
From the text: as §2

wheat, spring = assay: Test D preemergence; assay type: in vivo, Triticum aestivum; details: scale 0 to 100
From the text: as §2

wheat, winter = assay: Test D preemergence; assay type: in vivo, Triticum aestivum; details: scale 0 to 100
From the text: as §2

oat, wild = assay: Test D preemergence; assay type: in vivo, Avena fatua; details: scale 0 to 100
From the text: as §2

windgrass = assay: Test D preemergence; assay type: in vivo, Apera spica-venti; details: scale 0 to 100
From the text: as §2

canarygrass = assay: Test D postemergence; assay type: in vivo, Phalaris minor; details: scale 0 to 100
From the text: as §2

chickweed = assay: Test D postemergence; assay type: in vivo, Stellaria media; details: scale 0 to 100
From the text: as §2

foxtail, green = assay: Test D postemergence; assay type: in vivo, Setaria viridis; details: scale 0 to 100
From the text: as §2

## CCOc1nc(-c2ccc(F)cc2)nn1Cc1ccnc(C(F)(F)F)c1 [Compound 8, 4-[[5-ethoxy-3-(4-fluorophenyl)-1H-1,2,4-triazol-1-yl]methyl]-2-(trifluoromethyl)pyridine]
galium; 125 g ai/ha
  Plant response rating (scale of 0 to 100 where 0 is no effect and 100 is complete control): 100
galium; 250 g ai/ha
  Plant response rating (scale of 0 to 100 where 0 is no effect and 100 is complete control): 100
galium; 31 g ai/ha
  Galium plant response rating (0 to 100): 80
galium; 62 g ai/ha
  Galium plant response rating (0 to 100): 100
corn; 125 g ai/ha
  Plant response rating (scale of 0 to 100 where 0 is no effect and 100 is complete control): 65
corn; 250 g ai/ha
  Plant response rating (scale of 0 to 100 where 0 is no effect and 100 is complete control): 65
corn; 31 g ai/ha
  Corn plant response rating (0 to 100): 35
corn; 62 g ai/ha
  Corn plant response rating (0 to 100): 55
foxtail, giant; 125 g ai/ha
  Plant response rating (scale of 0 to 100 where 0 is no effect and 100 is complete control): 100
foxtail, giant; 250 g ai/ha
  Plant response rating (scale of 0 to 100 where 0 is no effect and 100 is complete control): 100
foxtail, giant; 31 g ai/ha
  Foxtail, Giant plant response rating (0 to 100): 100
foxtail, giant; 62 g ai/ha
  Foxtail, Giant plant response rating (0 to 100): 100
lambsquarters; 125 g ai/ha
  Plant response rating (scale of 0 to 100 where 0 is no effect and 100 is complete control): 100
lambsquarters; 250 g ai/ha
  Plant response rating (scale of 0 to 100 where 0 is no effect and 100 is complete control): 100
lambsquarters; 31 g ai/ha
  Lambsquarters plant response rating (0 to 100): 95
lambsquarters; 62 g ai/ha
  Lambsquarters plant response rating (0 to 100): 98
ragweed; 31 g ai/ha
  Ragweed plant response rating (0 to 100): 75
ragweed; 62 g ai/ha
  Ragweed plant response rating (0 to 100): 85
ragweed; 125 g ai/ha
  Plant response rating (scale of 0 to 100 where 0 is no effect and 100 is complete control): 90
ragweed; 250 g ai/ha
  Plant response rating (scale of 0 to 100 where 0 is no effect and 100 is complete control): 90
barnyardgrass; 125 g ai/ha
  Plant response rating (scale of 0 to 100 where 0 is no effect and 100 is complete control): 100
barnyardgrass; 250 g ai/ha
  Plant response rating (scale of 0 to 100 where 0 is no effect and 100 is complete control): 100
barnyardgrass; 31 g ai/ha
  Barnyardgrass plant response rating (0 to 100): 98
barnyardgrass; 62 g ai/ha
  Barnyardgrass plant response rating (0 to 100): 100
velvetleaf; 31 g ai/ha
  Velvetleaf plant response rating (0 to 100): 70
velvetleaf; 62 g ai/ha
  Velvetleaf plant response rating (0 to 100): 85
velvetleaf; Velvetleaf, preemergence, 250 g ai/ha
  Plant response rating (scale of 0 to 100 where 0 is no effect and 100 is complete control): 100
bromegrass, down; 31 g ai/ha
  Plant response rating: Bromegrass, Down: 10
bromegrass, down; 62 g ai/ha
  Plant response rating: Bromegrass, Down: 35
bromegrass, down; 125 g ai/ha
  Plant response rating: Bromegrass, Down: 100
bromegrass, down; 250 g ai/ha
  Plant response rating: Bromegrass, Down: 100
barley, spring; 31 g ai/ha
  Plant response rating: Barley, Spring: 5
barley, spring; 62 g ai/ha
  Plant response rating: Barley, Spring: 20
barley, spring; 125 g ai/ha
  Plant response rating: Barley, Spring: 45
barley, spring; 250 g ai/ha
  Plant response rating: Barley, Spring: 60
barley, winter; 31 g ai/ha
  Plant response rating: Barley, Winter: 5
barley, winter; 62 g ai/ha
  Plant response rating: Barley, Winter: 25
barley, winter; 125 g ai/ha
  Plant response rating: Barley, Winter: 35
barley, winter; 250 g ai/ha
  Plant response rating: Barley, Winter: 45
wheat, spring; 62 g ai/ha
  Plant response rating: Wheat, Spring: 15
wheat, spring; 125 g ai/ha
  Plant response rating: Wheat, Spring: 35
wheat, spring; 250 g ai/ha
  Plant response rating: Wheat, Spring: 70
wheat, winter; 62 g ai/ha
  Plant response rating: Wheat, Winter: 25
wheat, winter; 125 g ai/ha
  Plant response rating: Wheat, Winter: 40
wheat, winter; 250 g ai/ha
  Plant response rating: Wheat, Winter: 65
oat, wild; 62 g ai/ha
  Plant response rating: Oat, Wild: 40
oat, wild; 125 g ai/ha
  Plant response rating: Oat, Wild: 70
oat, wild; 250 g ai/ha
  Plant response rating: Oat, Wild: 80
windgrass; 62 g ai/ha
  Plant response rating: Windgrass: 90
windgrass; 125 g ai/ha
  Plant response rating: Windgrass: 100
windgrass; 250 g ai/ha
  Plant response rating: Windgrass: 100
canarygrass; 31 g ai/ha
  Plant response rating: Canarygrass: 55
canarygrass; 62 g ai/ha
  Plant response rating: Canarygrass: 60
canarygrass; 125 g ai/ha
  Plant response rating: Canarygrass: 65
canarygrass; 250 g ai/ha
  Plant response rating: Canarygrass: 75
chickweed; 31 g ai/ha
  Plant response rating: Chickweed: 80
chickweed; 62 g ai/ha
  Plant response rating: Chickweed: 85
chickweed; 125 g ai/ha
  Plant response rating: Chickweed: 85
chickweed; 250 g ai/ha
  Plant response rating: Chickweed: 90
foxtail, green; 31 g ai/ha
  Plant response rating: Foxtail, Green: 40
foxtail, green; 62 g ai/ha
  Plant response rating: Foxtail, Green: 75
foxtail, green; 125 g ai/ha
  Plant response rating: Foxtail, Green: 75
foxtail, green; 250 g ai/ha
  Plant response rating: Foxtail, Green: 85
